Results reported in the supplement of paper PMC10307832.

Assays:
Assay in all cases: relative viability (nuclei count vs DMSO), 5 days (fraction); higher = more cells survive
Bleomycin + Foretinib = compound: CC1=C(N=C(N=C1N)[C@H](CC(=O)N)NC[C@@H](C(=O)N)N)C(=O)N[C@@H]([C@H](C2=CN=CN2)OC3C(C(C(C(O3)CO)O)O)OC4C(C(C(C(O4)CO)O)OC(=O)N)O)C(=O)N[C@H](C)[C@H]([C@H](C)C(=O)N[C@@H]([C@@H](C)O)C(=O)NCCC5=NC(=CS5)C6=NC(=CS6)C(=O)NCCC[S+](C)C)O [Bleomycin] + COc1cc2c(Oc3ccc(NC(=O)C4(C(=O)Nc5ccc(F)cc5)CC4)cc3F)ccnc2cc1OCCCN1CCOCC1 [Foretinib] (partner 0.25 µM); details: main component drawn
Method in brief: (§1)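 Relative viability equals treated-well nuclei counts divided by vehicle-well nuclei counts. Counts came from 4× images of lung cancer cell lines grown in 1536-well plates for 5 days after pin-tool dosing on the day after seeding. Dosing used one drug alone or a fixed anchor-drug dose plus five library-drug doses (not always all listed) in √10 steps, and values are medians of duplicate plates.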

Etoposide + OSI-027 = compound: COc1cc([C@@H]2c3cc4c(cc3[C@@H](O[C@@H]3O[C@@H]5CO[C@@H](C)O[C@H]5[C@H](O)[C@H]3O)[C@H]3COC(=O)[C@H]23)OCO4)cc(OC)c1O [Etoposide] + COc1cccc2cc(-c3nc([C@H]4CC[C@H](C(=O)O)CC4)n4ncnc(N)c34)[nH]c12 [OSI-027] (partner 0.5 µM)
Method in brief: as §1

Etoposide + Lapatinib = compound: COc1cc([C@@H]2c3cc4c(cc3[C@@H](O[C@@H]3O[C@@H]5CO[C@@H](C)O[C@H]5[C@H](O)[C@H]3O)[C@H]3COC(=O)[C@H]23)OCO4)cc(OC)c1O [Etoposide] + CS(=O)(=O)CCNCc1ccc(-c2ccc3ncnc(Nc4ccc(OCc5cccc(F)c5)c(Cl)c4)c3c2)o1 [Lapatinib] (partner 2 µM)
Method in brief: as §1

Etoposide + Pemetrexed = compound: COc1cc([C@@H]2c3cc4c(cc3[C@@H](O[C@@H]3O[C@@H]5CO[C@@H](C)O[C@H]5[C@H](O)[C@H]3O)[C@H]3COC(=O)[C@H]23)OCO4)cc(OC)c1O [Etoposide] + Nc1nc2[nH]cc(CCc3ccc(C(=O)N[C@@H](CCC(=O)O)C(=O)O)cc3)c2c(=O)[nH]1 [Pemetrexed] (partner 0.2 µM)
Method in brief: as §1

NCI-H1355 was tested, and the relative viability (Bleomycin + Foretinib; first compound 0.01 µM) was 0.931, the relative viability (Bleomycin + Foretinib; first compound 0.03162 µM) was 0.971 and the relative viability (Bleomycin + Foretinib; first compound 0.1 µM) was 0.937. The relative viability (Bleomycin + Foretinib; first compound 0.3162 µM) was 0.52, the relative viability (Bleomycin + Foretinib; first compound 1 µM) was 0.348 and the relative viability (Etoposide + OSI-027; first compound 0.01 µM) was 0.383. The relative viability (Etoposide + OSI-027; first compound 0.03162 µM) was 0.396, the relative viability (Etoposide + OSI-027; first compound 0.1 µM) was 0.3 and the relative viability (Etoposide + OSI-027; first compound 0.3162 µM) was 0.345. The relative viability (Etoposide + OSI-027; first compound 1 µM) was 0.219, the relative viability (Etoposide + Lapatinib; first compound 0.01 µM) was 1.09 and the relative viability (Etoposide + Lapatinib; first compound 0.03162 µM) was 1.03. The relative viability (Etoposide + Lapatinib; first compound 0.1 µM) was 0.472, the relative viability (Etoposide + Lapatinib; first compound 0.3162 µM) was 0.775 and the relative viability (Etoposide + Lapatinib; first compound 1 µM) was 0.248. It also gave a relative viability (Etoposide + Pemetrexed; first compound 0.01 µM) of 1.09, a relative viability (Etoposide + Pemetrexed; first compound 0.03162 µM) of 1.09 and a relative viability (Etoposide + Pemetrexed; first compound 0.1 µM) of 0.617. It also gave a relative viability (Etoposide + Pemetrexed; first compound 0.3162 µM) of 0.919 and a relative viability (Etoposide + Pemetrexed; first compound 1 µM) of 0.46.
NCI-H1395 was tested, and the relative viability (Bleomycin + Foretinib; first compound 0.01 µM) was 0.886, the relative viability (Bleomycin + Foretinib; first compound 0.03162 µM) was 0.932 and the relative viability (Bleomycin + Foretinib; first compound 0.1 µM) was 0.827. The relative viability (Bleomycin + Foretinib; first compound 0.3162 µM) was 0.672, the relative viability (Bleomycin + Foretinib; first compound 1 µM) was 0.497 and the relative viability (Etoposide + OSI-027; first compound 0.01 µM) was 0.625. It also gave a relative viability (Etoposide + OSI-027; first compound 0.03162 µM) of 0.759, a relative viability (Etoposide + OSI-027; first compound 0.1 µM) of 0.506 and a relative viability (Etoposide + OSI-027; first compound 0.3162 µM) of 0.605. It also gave a relative viability (Etoposide + OSI-027; first compound 1 µM) of 0.469, a relative viability (Etoposide + Lapatinib; first compound 0.01 µM) of 0.907 and a relative viability (Etoposide + Lapatinib; first compound 0.03162 µM) of 1.09. For the same cell line, the relative viability (Etoposide + Lapatinib; first compound 0.1 µM) was 0.969, the relative viability (Etoposide + Lapatinib; first compound 0.3162 µM) was 0.836 and the relative viability (Etoposide + Lapatinib; first compound 1 µM) was 0.74. For the same cell line, the relative viability (Etoposide + Pemetrexed; first compound 0.01 µM) was 0.765, the relative viability (Etoposide + Pemetrexed; first compound 0.03162 µM) was 0.894 and the relative viability (Etoposide + Pemetrexed; first compound 0.1 µM) was 0.758. For the same cell line, the relative viability (Etoposide + Pemetrexed; first compound 0.3162 µM) was 0.823 and the relative viability (Etoposide + Pemetrexed; first compound 1 µM) was 0.599.
Cell Line NCI-H1437 has a relative viability (Bleomycin + Foretinib; first compound 0.01 µM) of 1.18, a relative viability (Bleomycin + Foretinib; first compound 0.03162 µM) of 1.12 and a relative viability (Bleomycin + Foretinib; first compound 0.1 µM) of 0.959. For the same cell line, the relative viability (Bleomycin + Foretinib; first compound 0.3162 µM) was 0.695, the relative viability (Bleomycin + Foretinib; first compound 1 µM) was 0.619 and the relative viability (Etoposide + OSI-027; first compound 0.01 µM) was 1.04. The relative viability (Etoposide + OSI-027; first compound 0.03162 µM) was 0.891, the relative viability (Etoposide + OSI-027; first compound 0.1 µM) was 0.423 and the relative viability (Etoposide + OSI-027; first compound 0.3162 µM) was 0.635. For the same cell line, the relative viability (Etoposide + OSI-027; first compound 1 µM) was 0.31, the relative viability (Etoposide + Lapatinib; first compound 0.01 µM) was 0.754 and the relative viability (Etoposide + Lapatinib; first compound 0.03162 µM) was 0.837. It also gave a relative viability (Etoposide + Lapatinib; first compound 0.1 µM) of 0.577, a relative viability (Etoposide + Lapatinib; first compound 0.3162 µM) of 0.398 and a relative viability (Etoposide + Lapatinib; first compound 1 µM) of 0.186. For the same cell line, the relative viability (Etoposide + Pemetrexed; first compound 0.01 µM) was 0.309, the relative viability (Etoposide + Pemetrexed; first compound 0.03162 µM) was 0.318 and the relative viability (Etoposide + Pemetrexed; first compound 0.1 µM) was 0.303. For the same cell line, the relative viability (Etoposide + Pemetrexed; first compound 0.3162 µM) was 0.325 and the relative viability (Etoposide + Pemetrexed; first compound 1 µM) was 0.303.
For NCI-H1563, the relative viability (Bleomycin + Foretinib; first compound 0.01 µM) was 0.838, the relative viability (Bleomycin + Foretinib; first compound 0.03162 µM) was 0.803 and the relative viability (Bleomycin + Foretinib; first compound 0.1 µM) was 0.734. It also gave a relative viability (Bleomycin + Foretinib; first compound 0.3162 µM) of 0.647, a relative viability (Bleomycin + Foretinib; first compound 1 µM) of 0.61 and a relative viability (Etoposide + OSI-027; first compound 0.01 µM) of 0.738. For the same cell line, the relative viability (Etoposide + OSI-027; first compound 0.03162 µM) was 0.781, the relative viability (Etoposide + OSI-027; first compound 0.1 µM) was 0.756 and the relative viability (Etoposide + OSI-027; first compound 0.3162 µM) was 0.61. The relative viability (Etoposide + OSI-027; first compound 1 µM) was 0.466, the relative viability (Etoposide + Lapatinib; first compound 0.01 µM) was 0.935 and the relative viability (Etoposide + Lapatinib; first compound 0.03162 µM) was 0.868. It also gave a relative viability (Etoposide + Lapatinib; first compound 0.1 µM) of 0.817, a relative viability (Etoposide + Lapatinib; first compound 0.3162 µM) of 0.646 and a relative viability (Etoposide + Lapatinib; first compound 1 µM) of 0.526. It also gave a relative viability (Etoposide + Pemetrexed; first compound 0.01 µM) of 0.693, a relative viability (Etoposide + Pemetrexed; first compound 0.03162 µM) of 0.806 and a relative viability (Etoposide + Pemetrexed; first compound 0.1 µM) of 0.547. The relative viability (Etoposide + Pemetrexed; first compound 0.3162 µM) was 0.425 and the relative viability (Etoposide + Pemetrexed; first compound 1 µM) was 0.371.
NCI-H1650 showed a relative viability (Bleomycin + Foretinib; first compound 0.01 µM) of 0.718, a relative viability (Bleomycin + Foretinib; first compound 0.03162 µM) of 0.393 and a relative viability (Bleomycin + Foretinib; first compound 0.1 µM) of 0.254. The relative viability (Bleomycin + Foretinib; first compound 0.3162 µM) was 0.188, the relative viability (Bleomycin + Foretinib; first compound 1 µM) was 0.181 and the relative viability (Etoposide + OSI-027; first compound 0.01 µM) was 0.711. It also gave a relative viability (Etoposide + OSI-027; first compound 0.03162 µM) of 0.556, a relative viability (Etoposide + OSI-027; first compound 0.1 µM) of 0.41 and a relative viability (Etoposide + OSI-027; first compound 0.3162 µM) of 0.32. The relative viability (Etoposide + OSI-027; first compound 1 µM) was 0.163, the relative viability (Etoposide + Lapatinib; first compound 0.01 µM) was 0.696 and the relative viability (Etoposide + Lapatinib; first compound 0.03162 µM) was 0.781. The relative viability (Etoposide + Lapatinib; first compound 0.1 µM) was 0.479, the relative viability (Etoposide + Lapatinib; first compound 0.3162 µM) was 0.217 and the relative viability (Etoposide + Lapatinib; first compound 1 µM) was 0.144. The relative viability (Etoposide + Pemetrexed; first compound 0.01 µM) was 0.354, the relative viability (Etoposide + Pemetrexed; first compound 0.03162 µM) was 0.376 and the relative viability (Etoposide + Pemetrexed; first compound 0.1 µM) was 0.388. For the same cell line, the relative viability (Etoposide + Pemetrexed; first compound 0.3162 µM) was 0.239 and the relative viability (Etoposide + Pemetrexed; first compound 1 µM) was 0.223.
With NCI-H1651 the relative viability (Bleomycin + Foretinib; first compound 0.01 µM) was 0.716, the relative viability (Bleomycin + Foretinib; first compound 0.03162 µM) was 0.499 and the relative viability (Bleomycin + Foretinib; first compound 0.1 µM) was 0.496. For the same cell line, the relative viability (Bleomycin + Foretinib; first compound 0.3162 µM) was 0.31, the relative viability (Bleomycin + Foretinib; first compound 1 µM) was 0.213 and the relative viability (Etoposide + OSI-027; first compound 0.01 µM) was 0.591. For the same cell line, the relative viability (Etoposide + OSI-027; first compound 0.03162 µM) was 0.641, the relative viability (Etoposide + OSI-027; first compound 0.1 µM) was 0.438 and the relative viability (Etoposide + OSI-027; first compound 0.3162 µM) was 0.44. The relative viability (Etoposide + OSI-027; first compound 1 µM) was 0.155, the relative viability (Etoposide + Lapatinib; first compound 0.01 µM) was 0.753 and the relative viability (Etoposide + Lapatinib; first compound 0.03162 µM) was 0.774. The relative viability (Etoposide + Lapatinib; first compound 0.1 µM) was 0.614, the relative viability (Etoposide + Lapatinib; first compound 0.3162 µM) was 0.199 and the relative viability (Etoposide + Lapatinib; first compound 1 µM) was 0.121. The relative viability (Etoposide + Pemetrexed; first compound 0.01 µM) was 0.707, the relative viability (Etoposide + Pemetrexed; first compound 0.03162 µM) was 0.728 and the relative viability (Etoposide + Pemetrexed; first compound 0.1 µM) was 0.466. The relative viability (Etoposide + Pemetrexed; first compound 0.3162 µM) was 0.382 and the relative viability (Etoposide + Pemetrexed; first compound 1 µM) was 0.127.
With NCI-H1666 the relative viability (Bleomycin + Foretinib; first compound 0.01 µM) was 0.763, the relative viability (Bleomycin + Foretinib; first compound 0.03162 µM) was 0.675 and the relative viability (Bleomycin + Foretinib; first compound 0.1 µM) was 0.533. It also gave a relative viability (Bleomycin + Foretinib; first compound 0.3162 µM) of 0.44, a relative viability (Bleomycin + Foretinib; first compound 1 µM) of 0.398 and a relative viability (Etoposide + OSI-027; first compound 0.01 µM) of 0.853. It also gave a relative viability (Etoposide + OSI-027; first compound 0.03162 µM) of 0.812, a relative viability (Etoposide + OSI-027; first compound 0.1 µM) of 0.678 and a relative viability (Etoposide + OSI-027; first compound 0.3162 µM) of 0.528. For the same cell line, the relative viability (Etoposide + OSI-027; first compound 1 µM) was 0.408, the relative viability (Etoposide + Lapatinib; first compound 0.01 µM) was 0.616 and the relative viability (Etoposide + Lapatinib; first compound 0.03162 µM) was 0.692. The relative viability (Etoposide + Lapatinib; first compound 0.1 µM) was 0.371, the relative viability (Etoposide + Lapatinib; first compound 0.3162 µM) was 0.305 and the relative viability (Etoposide + Lapatinib; first compound 1 µM) was 0.28. It also gave a relative viability (Etoposide + Pemetrexed; first compound 0.01 µM) of 0.832, a relative viability (Etoposide + Pemetrexed; first compound 0.03162 µM) of 0.866 and a relative viability (Etoposide + Pemetrexed; first compound 0.1 µM) of 0.923. It also gave a relative viability (Etoposide + Pemetrexed; first compound 0.3162 µM) of 0.631 and a relative viability (Etoposide + Pemetrexed; first compound 1 µM) of 0.563.
